As a reminder, the inhibition is the share of the control response that was lost under treatment.

Where only a bound is given, the exact number is not on record here.

T1 sequence (Q9Y5N1 with tags, fused parts or gaps): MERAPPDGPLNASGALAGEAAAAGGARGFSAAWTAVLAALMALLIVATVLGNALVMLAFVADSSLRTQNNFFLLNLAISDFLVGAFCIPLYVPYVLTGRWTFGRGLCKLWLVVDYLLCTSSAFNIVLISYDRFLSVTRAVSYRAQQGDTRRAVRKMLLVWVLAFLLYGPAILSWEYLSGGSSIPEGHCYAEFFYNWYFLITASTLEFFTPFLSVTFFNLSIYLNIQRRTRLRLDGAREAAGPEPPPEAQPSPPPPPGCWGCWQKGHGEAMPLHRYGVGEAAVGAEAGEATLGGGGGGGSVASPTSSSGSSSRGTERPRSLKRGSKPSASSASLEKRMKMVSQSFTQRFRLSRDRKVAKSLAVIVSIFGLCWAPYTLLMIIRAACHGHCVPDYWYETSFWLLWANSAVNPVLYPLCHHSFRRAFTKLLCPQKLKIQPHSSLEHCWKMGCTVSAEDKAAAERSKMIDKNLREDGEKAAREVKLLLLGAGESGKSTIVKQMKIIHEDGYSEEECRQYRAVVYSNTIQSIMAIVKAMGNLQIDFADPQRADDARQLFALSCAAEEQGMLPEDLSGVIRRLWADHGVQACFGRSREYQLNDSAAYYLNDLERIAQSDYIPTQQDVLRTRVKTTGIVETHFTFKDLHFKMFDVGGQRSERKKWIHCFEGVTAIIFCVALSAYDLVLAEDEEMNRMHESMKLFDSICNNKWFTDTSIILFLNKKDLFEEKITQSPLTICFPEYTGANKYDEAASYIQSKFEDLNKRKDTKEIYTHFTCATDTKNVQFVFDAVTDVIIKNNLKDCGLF

The first assay has as its target T1, chimeric human H3 receptor (Homo sapiens, UniProt Q9Y5N1).
T1 construct: made in house; host or cells: Sf9 insect cells (baculovirus); P2 membrane preparation
Kind of assay: Chimeric human H3 receptor screening GTP binding assay (inhibition of histamine-stimulated GTP-gamma35S binding, Example 8). Particulars: 4 μM of the compound, 1 μM histamine, "†" in Ki of Table II, read-out: percent inhibition of the signal obtained with 1 μM histamine. It is filed as biochemical. An outline of the steps:
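Values are percent inhibition of 1 μM histamine-stimulated GTP-gamma35S […] binding, with non-specific binding (10 μM GTP-gammaS) subtracted, by compounds tested at 4 μM. Membranes (35 μg) from Sf9 cells expressing chimeric human H3 with G-protein subunits were used in Tris pH 7.4 buffer with 10 μM GDP. Incubation lasted 60 min at room temperature, followed by filtration and scintillation counting.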
Background: GTPγS is a poorly hydrolysed GTP analogue; its binding reports G protein activation.
On to `CCc1ccc(-c2ccc3c(c2)CCN(CC(=O)N2CCN(C(C)C)CC2)C3)cc1` [Compound 462, 6-(4-ethylphenyl)-2-[2-(4-isopropylpiperazin-1-yl)-2-oxoethyl]-1,2,3,4-tetrahydroisoquinoline], for which the inhibition at 4 µM was not below 90%.

For `O=C(CN1CCc2cc(-c3ccc4ccccc4c3)ccc2C1)N1CCN(C2CCC2)CC1` [Compound 416, 2-[2-(4-cyclobutylpiperazin-1-yl)-2-oxoethyl]-6-(2-naphthyl)-1,2,3,4-tetrahydroisoquinoline], the inhibition at 4 µM is not below 90%.

`O=C(CN1CCc2cc(-c3cccc(F)c3)ccc2C1)N1CCN(C2CCC2)CC1` [Compound 410, 2-[2-(4-cyclobutylpiperazin-1-yl)-2-oxoethyl]-6-(3-fluorophenyl)-1,2,3,4-tetrahydroisoquinoline]: the inhibition at 4 µM was not below 90%.

In the case of `Cc1ccc(F)c(-c2ccc3c(c2)CCN(CC(=O)N2CCN(C4CCC4)CC2)C3)c1` [Compound 423, 2-[2-(4-cyclobutylpiperazin-1-yl)-2-oxoethyl]-6-(2-fluoro-5-methylphenyl)-1,2,3,4-tetrahydroisoquinoline], the inhibition at 4 µM was not below 90%.

Consider `CCCCc1ccc(-c2ccc3c(c2)CCN(CC(=O)N2CCN(C4CCCC4)CC2)C3)cc1` [Compound 452, 6-(4-butylphenyl)-2-[2-(4-cyclopentylpiperazin-1-yl)-2-oxoethyl]-1,2,3,4-tetrahydroisoquinoline], for which the inhibition at 4 µM was not below 90%.

Take `Cc1ccc(-c2ccc3c(c2)CCN(CC(=O)N2CCN(C4CCCCC4)CC2)C3)cc1F` [Compound 428, 2-[2-(4-cyclohexylpiperazin-1-yl)-2-oxoethyl]-6-(3-fluoro-4-methylphenyl)-1,2,3,4-tetrahydroisoquinoline]: the inhibition at 4 µM was not below 90%.

On to `CCc1cccc(-c2ccc3c(c2)CCN(CC(=O)N2CCN(C4CCCCC4)CC2)C3)c1` [Compound 469, 2-[2-(4-cyclohexylpiperazin-1-yl)-2-oxoethyl]-6-(3-ethylphenyl)-1,2,3,4-tetrahydroisoquinoline], for which the inhibition at 4 µM was not below 90%.

In the case of `Cc1ccc(-c2ccc3c(c2)CCN(CC(=O)N2CCN(C4CCC4)CC2)C3)c(F)c1` [Compound 420, 2-[2-(4-cyclobutylpiperazin-1-yl)-2-oxoethyl]-6-(2-fluoro-4-methylphenyl)-1,2,3,4-tetrahydroisoquinoline], the inhibition at 4 µM is not below 90%.

Regarding `O=C(CN1CCc2nc(-c3ccccc3Oc3ccccc3)sc2C1)N1CCN(C2CCC2)CC1` [Compound 345, 5-[2-(4-cyclobutylpiperazin-1-yl)-2-oxoethyl]-2-(2-phenoxyphenyl)-4,5,6,7-tetrahydro[1,3] thiazolo[5,4-c]pyridine], the inhibition at 4 µM was not below 90%.

Consider `Cc1ccc(-c2ccc3c(c2)CCN(CC(=O)N2CCN(C4CCCC4)CC2)C3)cc1F` [Compound 427, 2-[2-(4-cyclopentylpiperazin-1-yl)-2-oxoethyl]-6-(3-fluoro-4-methylphenyl)-1,2,3,4-tetrahydroisoquinoline], for which the inhibition at 4 µM is not below 90%.

Turning to `O=C(CN1CCc2cc(-c3ccc(Cl)cc3)ccc2C1)N1CCN(C2CCCC2)CC1` [Compound 405, 6-(4-chlorophenyl)-2-[2-(4-cyclopentylpiperazin-1-yl)-2-oxoethyl]-1,2,3,4-tetrahydroisoquinoline], the inhibition at 4 µM was not below 90%.

Take `CC(C)c1cccc(-c2ccc3c(c2)CCN(CC(=O)N2CCN(C4CCCCC4)CC2)C3)c1` [Compound 441, 2-[2-(4-cyclohexylpiperazin-1-yl)-2-oxoethyl]-6-(3-isopropylphenyl)-1,2,3,4-tetrahydroisoquinoline]: the inhibition at 4 µM was not below 90%.

On to `O=C(CN1CCc2cc(-c3cccc(Cl)c3)ccc2C1)N1CCN(C2CCCCC2)CC1` [Compound 403, 6-(3-chlorophenyl)-2-[2-(4-cyclohexylpiperazin-1-yl)-2-oxoethyl]-1,2,3,4-tetrahydroisoquinoline], for which the inhibition at 4 µM is not below 90%.

Consider `O=C(CN1CCc2cc(-c3cccc(F)c3)ccc2C1)N1CCN(C2CCCC2)CC1` [Compound 411, 2-[2-(4-cyclopentylpiperazin-1-yl)-2-oxoethyl]-6-(3-fluorophenyl)-1,2,3,4-tetrahydroisoquinoline], for which the inhibition at 4 µM is not below 90%.

The assay is the same for the next values; noted with them: Table II "Ki", symbol †, 4 μM of the compound, 1 μM histamine, read-out: percent inhibition of the signal obtained with 1 μM histamine.
With `O=C(CN1CCc2cc(-c3ccc(F)c(Cl)c3)ccc2C1)N1CCN(C2CCC2)CC1` [Compound 579, 6-(3-chloro-4-fluorophenyl)-2-[2-(4-cyclobutylpiperazin-1-yl)-2-oxoethyl]-1,2,3,4-tetrahydroisoquinoline], the inhibition at 4 µM was not below 90%.

For `CN(C)c1ccc(-c2ccc3c(c2)CCN(CC(=O)N2CCN(C4CCCCC4)CC2)C3)cc1` [Compound 534, 4-{2-[2-(4-cyclohexylpiperazin-1-yl)-2-oxoethyl]-1,2,3,4-tetrahydroisoquinolin-6-yl}-N,N-dimethylaniline], the inhibition at 4 µM is not below 90%.

For `O=C(CN1CCc2cc(-c3cccc(OC(F)(F)F)c3)ccc2C1)N1CCN(C2CCCC2)CC1` [Compound 491, 2-[2-(4-cyclopentylpiperazin-1-yl)-2-oxoethyl]-6-[3-(trifluoromethoxy)phenyl]-1,2,3,4-tetrahydroisoquinoline], the inhibition at 4 µM is not below 90%.

In the case of `O=C(CN1CCc2cc(-c3cncnc3)ccc2C1)N1C[C@@H]2C[C@H]1CN2C1CCCCC1` (stereo in doubt) [Compound 618, 2-{2-[(1S,4S)-5-cyclohexyl-2,5-diazabicyclo[2.2.1]hept-2-yl]-2-oxoethyl}-6-pyrimidin-5-yl-1,2,3,4-tetrahydroisoquinoline], the inhibition at 4 µM is not below 90%.

As to `COc1ccc(-c2ccc3c(c2)CCN(CC(=O)N2CCN(C4CCCCC4)CC2)C3)c(C)c1` [Compound 550, 2-[2-(4-cyclohexylpiperazin-1-yl)-2-oxoethyl]-6-(4-methoxy-2-methylphenyl)-1,2,3,4-tetrahydroisoquinoline], the inhibition at 4 µM was not below 90%.

As to `CCOc1ccccc1-c1ccc2c(c1)CCN(CC(=O)N1CCN(C3CCCC3)CC1)C2` [Compound 567, 2-[2-(4-cyclopentylpiperazin-1-yl)-2-oxoethyl]-6-(2-ethoxyphenyl)-1,2,3,4-tetrahydroisoquinoline], the inhibition at 4 µM was not below 90%.

For the molecule `O=C(CN1CCc2cc(-c3ccc(F)c(Cl)c3)ccc2C1)N1CCN(C2CCCCC2)CC1` [Compound 581, 6-(3-chloro-4-fluorophenyl)-2-[2-(4-cyclohexylpiperazin-1-yl)-2-oxoethyl]-1,2,3,4-tetrahydroisoquinoline], the inhibition at 4 µM was not below 90%.

Consider `COc1cc(F)c(-c2ccc3c(c2)CCN(CC(=O)N2CCN(C(C)C)CC2)C3)cc1F` [Compound 508, 6-(2,5-difluoro-4-methoxyphenyl)-2-[2-(4-isopropylpiperazin-1-yl)-2-oxoethyl]-1,2,3,4-tetrahydroisoquinoline], for which the inhibition at 4 µM was not below 90%.

For the molecule `COC1CCCCC1N1C[C@@H]2C[C@H]1CN2C(=O)CN1CCc2cc(-c3cncnc3)ccc2C1` (stereo in doubt) [Compound 620, 2-{2-[(1S,4S)-5-(2-methoxycyclohexyl)-2,5-diazabicyclo[2.2.1]hept-2-yl]-2-oxoethyl}-6-pyrimidin-5-yl-1,2,3,4-tetrahydroisoquinoline], the inhibition at 4 µM was not below 90%.

Turning to `CC(C1CC1)N1CCN(C(=O)CN2CCc3cc(-c4cncnc4)ccc3C2)CC1` (centres unmarked) [Compound 609, 2-{2-[4-(1-cyclopropylethyl)piperazin-1-yl]-2-oxoethyl}-6-pyrimidin-5-yl-1,2,3,4-tetrahydroisoquinoline], the inhibition at 4 µM was not below 90%.

In the case of `CC(C)C(C)N1CCN(C(=O)CN2CCc3cc(-c4cncnc4)ccc3C2)CC1` (centres unmarked) [Compound 607, 2-{2-[4-(1,2-dimethylpropyl)piperazin-1-yl]-2-oxoethyl}-6-pyrimidin-5-yl-1,2,3,4-tetrahydroisoquinoline], the inhibition at 4 µM was not below 90%.

Consider `CCCOc1ccc(-c2ccc3c(c2)CCN(CC(=O)N2CCN(C(C)C)CC2)C3)cc1` [Compound 547, 2-[2-(4-isopropylpiperazin-1-yl)-2-oxoethyl]-6-(4-propoxyphenyl)-1,2,3,4-tetrahydroisoquinoline], for which the inhibition at 4 µM was not below 90%.

In the case of `O=C(CN1CCc2cc(-c3cncnc3)ccc2C1)N1C[C@@H]2C[C@H]1CN2C1CCCC1` (stereo in doubt) [Compound 612, 2-{2-[(1S,4S)-5-cyclopentyl-2,5-diazabicyclo[2.2.1]hept-2-yl]-2-oxoethyl}-6-pyrimidin-5-yl-1,2,3,4-tetrahydroisoquinoline], the inhibition at 4 µM is not below 90%.

For `CCCOCCNc1ccc2c(n1)CCN(CC(=O)N1CCN(C3CCC3)CC1)C2` [Compound 669, 6-[2-(4-cyclobutylpiperazin-1-yl)-2-oxoethyl]-N-(2-propoxyethyl)-5,6,7,8-tetrahydro-1,6-naphthyridin-2-amine], the inhibition at 4 µM is not below 90%.

`CN(C)c1cccc(-c2ccc3c(c2)CCN(CC(=O)N2CCN(C4CCCCC4)CC2)C3)c1` [Compound 538, 3-{2-[2-(4-cyclohexylpiperazin-1-yl)-2-oxoethyl]-1,2,3,4-tetrahydroisoquinolin-6-yl}-N,N-dimethylaniline]: the inhibition at 4 µM is not below 90%.

Turning to `COc1ccc(-c2ccc3c(c2)CCN(CC(=O)N2CCN(C4CCCCC4)CC2)C3)cc1` [Compound 522], the inhibition at 4 µM is not below 90%.

In the case of `CC(C)N1CCN(C(=O)CN2CCc3cc(-c4cccc(F)c4F)ccc3C2)CC1` [Compound 602, 6-(2,3-difluorophenyl)-2-[2-(4-isopropylpiperazin-1-yl)-2-oxoethyl]-1,2,3,4-tetrahydroisoquinoline], the inhibition at 4 µM was not below 90%.

`COc1ccc(-c2ccc3c(c2)CCN(CC(=O)N2CCN(C(C)C)CC2)C3)cc1` [Compound 523, 2-[2-(4-isopropylpiperazin-1-yl)-2-oxoethyl]-6-(4-methoxyphenyl)-1,2,3,4-tetrahydroisoquinoline]: the inhibition at 4 µM is not below 90%.

The values are drawn from US20110082130A1 (LIGAND PHARMACEUTICALS, INC., priority 2006, published 2011).
